The text below walks through data of patent US20060084064A1, “Endocan compositions and methods for the treatment of neoplasms” (priority 2003, published 2006).

For orientation: IC50 means the midpoint of a concentration-inhibition curve.

Experiment [1] deals with endocan mRNA in HUVECs. Description: Endocan mRNA expression in serum-starved HUVECs (Northern blot). In kind it is cell-based, human. As to conditions: for Inhibition of endocan induction by VEGF / Inhibition of endocan induction by tumor cell-conditioned medium: HUVECs preincubated 30 minutes with 5 μM BIM; for Inhibition of endocan induction by VEGF: 20 μM LY294002, 50 μM PD98059 or 20 μM SU1498 before 6 hour treatment with 20 ng/ml VEGF, FIGS. 3G; for Inhibition of endocan induction by VEGF / Effect of growth factor addition on endocan mRNA: 3I; for Inhibition of endocan induction by tumor cell-conditioned medium: 20 μM LY294002 or 50 μM PD98059 before 6 hour treatment, FIG. 3H; for Effect of growth factor addition on endocan mRNA: growth factor added to serum-starved HUVECs, FIGS. 3D-3F. The procedure:
Human non-small lung cancer cells (NCI-H1437, ATCC (American Type Culture Collection) CRL-5872) and rat glioma cells (C6, ATCC CCL-107) were grown in DMEM (Life Technologies Inc., Gaithersburg, Md.) containing 10% FBS (Life Technologies Inc.). Human renal cell carcinoma cells (786-0, ATCC CRL-1932) were maintained in RPMI 1640 (Life Technologies Inc.) containing 10% FBS. HUVECs, human epidermal keratinocytes and human renal tubule epithelial cells were obtained from Clonetics (San Diego, Calif.) and grown in EGM-2-MV, KGM and REGM, respectively (Clonetics). All cells were maintained at 37° C. under 5% CO2 in humidified air. Endothelial cells were grown to 90% confluence, serum-starved overnight in EBM-2 medium containing 0.5% FBS and incubated in the absence or presence of tumor cell-conditioned medium or growth factors at the doses and for the times indicated. Unless otherwise stated, endothelial cells were incubated with 20 ng/ml VEGF for 6 hours. In inhibition studies, serum-starved endothelial cells were preincubated with 5 μM BIM, 20 μM LY294002, 50 μM PD98059, or 20 μM SU1498 for 30 minutes before a 6 hour treatment with tumor conditional medium or VEGF. For neutralization studies, tumor conditional medium or growth factors were preincubated with antibodies for 1 hour at 37° C. and the mixture was then added to serum-starved HUVECs.
Cultured cells and tissues were harvested for total RNA extraction, using the Trizol reagent (Life Technologies). Five μg total RNA from cells or 10 μg RNA from tissues were loaded on a 0.7% formaldehyde-containing agarose gel. The RNA was transferred to nylon membrane, covalently cross-linked by UV radiation, prehybridized for 6 hours, and hybridized for 18 hours at 42° C. with 10^6 cpm/ml [^32P] dCTP-labeled human endocan, mouse endocan, mouse vWF, or mouse VEGF cDNA probe.

The test system of experiment [2] is Flt-1 in HUVECs. As to conditions: VEGF added to HUVECs; Wang et al. 2000; cited from earlier work.
The target in experiment [3] is Flk-1 kinase. Particulars: selective inhibitor of Flk-1 kinase, obtained from Calbiochem; cited from earlier work.

As for `CN(C)CCCn1cc(C2=C(c3c[nH]c4ccccc34)C(=O)NC2=O)c2ccccc21` [BIM, Bisindolylmaleimide I], in experiment [1], the “Inhibition of endocan induction by VEGF” value is recorded as “completely inhibited” and the “Inhibition of endocan induction by tumor cell-conditioned medium” value is recorded as “completely inhibited”. As to VEGF, in experiment [2], the “Cell surface expression of Flt-1” value is listed as “reduced” and the “Flt-1 mRNA” value is given as “increased”. In addition, in experiment [1], the “Effect of growth factor addition on endocan mRNA” value was “time and dose dependent increase”.

For the molecule `CC(C)c1cc(/C=C(\C#N)C(=O)NCCCc2ccccc2)cc(C(C)C)c1O` [SU1498], the IC50 in experiment [3] was 700 nM. Also, in experiment [1], the “Inhibition of endocan induction by VEGF” value was “blocked”.

As for `COc1cccc(-c2cc(=O)c3ccccc3o2)c1N` [PD90985], the “Inhibition of endocan induction by tumor cell-conditioned medium” value in experiment [1] is listed as “not”.

B1: placenta growth factor (PlGF): Recombinant human placenta growth factor purchased from R&D Systems (protein, UniProt P49763 19-221, looked up)
Placenta growth factor: LPAVPPQQWALSAGNGSSEVEVVPFQEVWGRSYCRALERLVDVVSEYPSEVEHMFSPSCVSLLRCTGCCGDENLHCVPVETANVTMQLLKIRSGDRPSYVELTFSQHVRCECRHSPGRQSPDMPGDFRADAPSFLPPRRSLPMLFRMEWGCALTGSQSAVWPSSPVPEEIPRMHPGRNGKKQQRKPLREKMKPERCGDAVPRR
On to B1, for which, in experiment [1], the “Effect of growth factor addition on endocan mRNA” value is “did not alter”.
